Source: patent US20160067277A1, “USE OF XENON FOR LIMITING TUMOR CELL MIGRATION” (L'Air Liquide, Societe Anonyme pour I'Etude et …, priority 2013, published 2016)

Columns and labels:
Format in all cases: cell-based, human
[1] = test system: MCF7 cells; assay: Oris cell migration test, fluorescence-labeled cells (RFU); details: for % cell migration relative to the control: MCF7 (ER+) cells, migration at 24 h, control atmosphere = 100%
Protocol: (§1) ER− and ER+ cancer cells (Estrogen Receptor) of a human adenocarcinoma (breast cancer), namely lines of MDA-MB-231 and MCF7 cells, were deposited on plates coated with collagen, where they adhered. These cell lines are available commercially.
(§2) The plates with the adhering cells were then placed in a sealed chamber, saturated, for 1 h, 3 h and 5 h, with: • either a control atmosphere (control), namely a gas mixture formed from 25% O2, 5% CO2 and 70% N2 (vol %); • or a test atmosphere based on xenon according to the invention, namely a gas mixture formed from 25% O2, 5% CO2 and 70% xenon (vol %).
(§3) For its part, cell migration at 24 h was determined after 24 hours, using fluorescence-labeled cells in the context of an Oris™ cell migration test. In this test, the labeled cells migrate into a target zone, where they are then quantified by a fluorescent plate reader for measuring the relative fluorescent units (RFU)).
(§4) More precisely, as already noted, several tests (3 or 4 tests) were conducted with the different gas atmospheres for different exposure times, and the results were expressed in the form of relative fluorescent units (RFU).
(§5) The migration of the cancer cells exposed to the atmosphere containing xenon was calculated as a percentage (%) relative to that of the cells exposed to the control atmosphere, i.e. exposed to an atmosphere without xenon (RFU fixed at 100%), and in the same conditions.
(§6) A two-way t-test for statistical analysis of the difference between the cell lines and the probability values P below 0.05 were considered significant.

[2] = test system: MDA-MB-231 cells; assay: as above; details: for % cell migration relative to the control: MDA-MB-231 (ER-) cells, migration at 24 h, control atmosphere = 100%
Protocol: as §1, §2, §3, §4, §5, §6

[3] = test system: MCF7 cells; assay: MTT cell survival test; details: 1 h, 3 h, 5 h exposure to 70% xenon, MTT after 24 hours
Protocol: as §1, §2
(§7) Cell survival was determined after 24 hours, using an MTT (for methylthaizolyldiphenyl-tetrazolium bromide) test. This test is a conventional test for determining cellular viability. It is based on detection of living cells only, via the activity of their mitochondrial dehydrogenases, which makes it possible to evaluate cytotoxicity, proliferation and/or cellular activation.

[4] = test system: MDA-MB-231 cells; assay: MTT cell survival test; details: 1 h, 3 h, 5 h exposure to 70% xenon, MTT after 24 hours
Protocol: as §1, §2, §7

[5] = 1 h exposure to 25% O2, 5% CO2, 70% xenon
[6] = 3 h exposure to 25% O2, 5% CO2, 70% xenon
[7] = 5 h exposure to 25% O2, 5% CO2, 70% xenon

## [Xe] [xenon]
[1]; ER+ MCF7 cells, starting from 1 hour of exposure, FIG. 2
  effect on cell migration (in words): significantly reduces the migration
[1]; [5]
  % cell migration relative to the control: 58 ± 12%
[1]; [6]
  % cell migration relative to the control: 65 ± 12%
[1]; [7]
  % cell migration relative to the control: 65 ± 12%
[2]; ER- MDA-MB-231 cells, starting from 1 hour of exposure, FIG. 1
  effect on cell migration (in words): significantly reduces the migration
[2]; [5]
  % cell migration relative to the control: 59 ± 13%
[2]; [6]
  % cell migration relative to the control: 64 ± 10%
[2]; [7]
  % cell migration relative to the control: 71 ± 9%
[3]
  effect on cell survival: does not have a significant effect on cell survival
[4]
  effect on cell survival: does not have a significant effect on cell survival
